# Measured values as given in PMC9610207 (Viruses, 2022).
# Experiments:
# SARS-CoV-2 [1] = conditions: cited from earlier work
# SARS-CoV-2 [2] = assay type: cell-based
# SARS-CoV-2 [3] = conditions: cited from earlier work; remark: listed apart in the source
# SARS-CoV-2 [4] = assay type: cell-based; remark: listed apart in the source
smiles,measurement,setting,value
"CCN(CC)CCCC(C)Nc1ccnc2cc(Cl)ccc12 (stereo not shown) [chloroquine, Chloroquine]","SARS-CoV-2 infection in VeroE6, previous studies",SARS-CoV-2 [1],inhibited
same,viral infection in Calu-3 with chloroquine,SARS-CoV-2 [2],resistant
same,"SARS-CoV-2 infection in Calu-3, previous studies",SARS-CoV-2 [3],not
same,viral infection in VeroE6 with chloroquine,SARS-CoV-2 [4],strongly inhibited
